Measurements reported in patent US9221814B2, “Heterocyclic guanidine F1F0-atpase inhibitors and therapeutic uses thereof” (Lycera Corporation, priority 2012, dated 2015).
Read-outs that look alike come from different tables or passages of the source.

Key:
Ramos cells = test: Cytotoxicity in Ramos cells; assay type: cell-based; conditions: detection limit EC50=16 μM, read-out: Ramos Cell EC50
Experimental: (§1) Exemplary compounds described in above Examples were tested for activity against F1F0-ATPase by measuring the ability of the compounds to inhibit ATP synthesis. In addition, the compounds were assessed for cytotoxicity in Ramos cells. Inhibition of F1F0-ATPase activity in synthesizing ATP and cytotoxicity in Ramos cells were measured according to the procedures described in K. M. Johnson et al. Chemistry & Biology 2005, 12, 485-496.

F1F0-ATPase = target: T1, F1F0-ATPase (Bos taurus, UniProt P13621); test: Inhibition of F1F0-ATPase activity in synthesizing ATP (ATP synthesis inhibition); assay type: biochemical; conditions: detection limit IC50=16 μM, read-out: ATP Syn IC50
T1 construct: from tissue
Experimental: as §1

| IC50 (F1F0-ATPase) [µM] | SMILES | EC50 (Ramos cells) [µM] | EC50 (Ramos cells; Homo sapiens) [µM] |
| --- | --- | --- | --- |
| < 5 | O=C(/N=C(/Nc1cc(F)cc(Cl)c1)Nc1cc(C(F)(F)F)n[nH]1)c1ccc(Cl)s1 [Compound A-210] | < 5 |  |
| < 5 | Cn1cc(C(=O)/N=C(/Nc2cc(F)cc(Cl)c2)Nc2cc(-c3cc(O)ccc3Cl)n[nH]2)c(C(F)(F)F)n1 [Compound A-183] | 5 to 16 |  |
| < 5 | CC(C)N/C(=N/C(=O)c1cc(C(C)C)no1)Nc1cc(-c2ccc(F)cc2)n[nH]1 [Compound A-63] | 5 to 16 |  |
| < 5 | Cn1cc(C(=O)/N=C(/Nc2cc(F)cc(Cl)c2)Nc2cc(-c3ccc(O)c(F)c3)n[nH]2)c(C(F)(F)F)n1 [Compound A-189] | < 5 |  |
| < 5 | COc1ccc(-c2cc(N/C(=N\C(=O)c3cn(C)nc3C(F)(F)F)Nc3ccccc3C(C)(C)C)[nH]n2)cc1F [Compound A-158] | > 16 |  |
| < 5 | Cc1cc(C(=O)/N=C(/NCC(C)C)Nc2cc(-c3cc(F)cc(F)c3)[nH]n2)c(C(F)(F)F)o1 [Compound A-116] | < 5 |  |
| 5 to 16 | COc1ccc(-c2cc(N/C(=N\C(=O)c3cn(C)nc3C(F)(F)F)Nc3cc(Cl)ccc3F)[nH]n2)cc1F [Compound A-160] | > 16 |  |
| > 16 | Cc1oncc1C(=O)/N=C(/NCC(C)C)Nc1cc(-c2ccc(F)cc2)[nH]n1 [Compound A-123] | > 16 |  |
| < 5 | Cn1cc(C(=O)N=C(Nc2cc(-c3ccc(O)c(F)c3)n[nH]2)Nc2cc(Cl)ccc2F)c(C(F)(F)F)n1 [Compound A-168] |  | 5 to 16 |
| < 5 | Cc1cc(N/C(=N\C(=O)c2cc(C)oc2C(F)(F)F)Nc2cc(F)cc(Cl)c2)n[nH]1 [Compound A-108] | 5 to 16 |  |
| < 5 | COC[C@H](C)N/C(=N/C(=O)c1cc(C(C)(C)C)nn1C)Nc1cc(-c2ccc(Cl)cc2)n[nH]1 [Compound A-76] | < 5 |  |
| < 5 | Cc1cc(C(=O)/N=C(/Nc2cc(F)cc(Cl)c2)Nc2cc(C(F)(F)F)nn2C(C)C)on1 [Compound A-225] |  | < 5 |
| 5 to 16 | CC(C)N/C(=N/C(=O)c1cc(C(C)(C)C)nn1C)Nc1cc(-c2ccc(Cl)cc2)n[nH]1 [Compound A-71] | < 5 |  |
| < 5 | Cn1cc(C(=O)/N=C(/Nc2cc(F)cc(F)c2)Nc2cc(-c3ccc(O)c(F)c3)n[nH]2)c(C(F)(F)F)n1 [Compound A-174] | < 5 |  |
| < 5 | Cc1oncc1C(=O)/N=C(\Nc1cc(-c2ccc(Cl)cc2)n[nH]1)NC(C)(C)C [Compound A-68] | < 5 |  |
| < 5 | Cc1cc(C(=O)N=C(Nc2cc(-c3cc(F)cc(F)c3)n[nH]2)NC(C)C)n(C)n1 [Compound A-81] |  | 5 to 16 |
| < 5 | Cc1oncc1C(=O)/N=C(\Nc1cc(-c2cc(F)cc(F)c2)n[nH]1)NC1CCCC1 [Compound A-78] | > 16 |  |
| < 5 | Cn1cc(C(=O)/N=C(/Nc2ccc(F)c(Cl)c2)Nc2cc(-c3ccc(O)c(F)c3)n[nH]2)c(C(F)(F)F)n1 [Compound A-163] | < 5 |  |
| 5 to 16 | Cn1cc(C(=O)/N=C(/Nc2cc(-c3ccc(O)cc3F)n[nH]2)Nc2ccccc2F)c(C(F)(F)F)n1 [Compound 1, N-(((3-(2-Fluoro-4-hydroxyphenyl)-1H-pyrazol-5-yl)amino)((2-fluorophenyl)amino)methylene)-1-methyl-3-(trifluoromethyl)-1H-pyrazole-4-carboxamide] |  | < 5 |
| < 5 | Cn1cc(C(=O)/N=C(/Nc2cccc(Cl)c2)Nc2cc(-c3ccc(O)c(F)c3)n[nH]2)c(C(F)(F)F)n1 [Compound A-162] | < 5 |  |

| IC50 (F1F0-ATPase) [µM] | SMILES | EC50 (Ramos cells) [µM] | EC50 (Ramos cells; Homo sapiens) [µM] |
| --- | --- | --- | --- |
| < 5 | Cc1cc(C(=O)/N=C(/Nc2cc(F)cc(Cl)c2)Nc2cc(C(F)(F)F)n[nH]2)on1 [Compound A-36] | < 5 |  |
| < 5 | CCn1ccc(C(=O)/N=C(\Nc2cc(-c3ccc(F)cc3)n[nH]2)NC(C)(C)C)n1 [Compound A-60] | 5 to 16 |  |
| < 5 | Cn1cc(C(=O)/N=C(/Nc2cc(-c3cc(F)cc(F)c3)n[nH]2)NC2CCC2)c(C(F)(F)F)n1 [Compound A-28] | < 5 |  |
| < 5 | COc1ccc(-c2cc(N/C(=N\C(=O)c3cn(C)nc3C(F)(F)F)Nc3ccc(F)cc3Cl)[nH]n2)cc1F [Compound A-147] | > 16 |  |
| < 5 | Cn1cc(C(=O)/N=C(\Nc2cc(F)cc(Cl)c2)Nc2cc(-c3ccc(O)cc3F)n[nH]2)c(C(F)(F)F)n1 [Compound A-5] | < 5 |  |
| < 5 | CCn1nc(C)cc1C(=O)/N=C(\Nc1cc(-c2ccc(F)cc2)n[nH]1)NC(C)(C)C [Compound A-53] | < 5 |  |
| < 5 | CC(C)N/C(=N/C(=O)c1cc(C(C)(C)C)nn1C)Nc1cc(-c2ccc(F)cc2)n[nH]1 [Compound A-49] | < 5 |  |
| 5 to 16 | CCC(C)N/C(=N/C(=O)c1cc(C)oc1C)Nc1cc(-c2ccc(F)cc2)n[nH]1 (centres unmarked) [Compound A-197] | 5 to 16 |  |
| > 16 | Cn1cc(C(=O)N=C(Nc2cc(-c3ccc(O)cc3F)n[nH]2)NC2CCCC2)c(C(F)(F)F)n1 [Compound A-137] |  | > 16 |
| 5 to 16 | CC(C)N/C(=N/C(=O)c1ccn(C(C)C)n1)Nc1cc(-c2ccc(F)cc2)n[nH]1 [Compound A-57] | 5 to 16 |  |
| < 5 | Cc1nc(C(=O)/N=C(\Nc2cc(-c3ccc(F)cc3)[nH]n2)NC(C)(C)C)c(C(F)(F)F)o1 [Compound A-119] | 5 to 16 |  |
| < 5 | COc1ccc(-c2cc(N/C(=N\C(=O)c3cn(C)nc3C(F)(F)F)Nc3ccc(F)cc3)[nH]n2)cc1F [Compound A-156] | > 16 |  |
| < 5 | Cn1cc(C(=O)/N=C(/Nc2ccc(C(C)(C)C)cc2)Nc2cc(-c3ccc(O)c(F)c3)n[nH]2)c(C(F)(F)F)n1 [Compound A-165] | < 5 |  |
| 5 to 16 | Cc1ccc(Cl)cc1N/C(=N/C(=O)c1cn(C)nc1C(F)(F)F)Nc1cc(-c2ccc(O)c(F)c2)n[nH]1 [Compound A-186] | > 16 |  |
| < 5 | CCOC(=O)NC1CCC(N/C(=N\C(=O)c2cc(C)oc2C(F)(F)F)Nc2cc(Cl)ccc2OC)CC1 (centres unmarked) [Compound A-215] |  | 5 to 16 |
| < 5 | COC[C@H](C)N/C(=N/C(=O)c1cc(C(C)(C)C)nn1C)Nc1cc(-c2ccc(F)cc2)n[nH]1 [Compound A-50] | < 5 |  |
| < 5 | Cn1cc(C(=O)/N=C(\Nc2cc(-c3ccc(O)c(F)c3)n[nH]2)Nc2ccc(F)cc2Cl)c(C(F)(F)F)n1 [Compound A-153] | < 5 |  |
| 5 to 16 | Cn1cc(C(=O)/N=C(/Nc2cccc(O)c2)Nc2cc(-c3ccc(O)c(F)c3)n[nH]2)c(C(F)(F)F)n1 [Compound A-170] | < 5 |  |
| < 5 | CC(C)(C)N/C(=N/C(=O)c1ccc(Cl)s1)Nc1cc(C(F)(F)F)n[nH]1 [Compound A-211] | < 5 |  |

| SMILES | IC50 (F1F0-ATPase) [µM] | EC50 (Ramos cells) [µM] | EC50 (Ramos cells; Homo sapiens) [µM] |
| --- | --- | --- | --- |
| CCOC(=O)NC1CCCC(N/C(=N\C(=O)c2cc(C)oc2C(F)(F)F)Nc2cccc(F)c2)C1 (centres unmarked) [Compound 2, Ethyl (3-(3-(3-fluorophenyl)-2-(5-methyl-2-(trifluoromethyl)furan-3-carbonyl)guanidino)cyclohexyl)carbamate] | > 16 |  | 5 to 16 |
